Source: patent publication US20240174596A1 (Northwestern University, priority 2021, published 2024)
Where a name gives a salt, the structure may show the parent alone.

What was measured:
hOAT = biological target: T1, hOAT (Homo sapiens, UniProt P04181); test: Transient state (stopped-flow) measurements of hOAT reacting with SS-1-148; format: biochemical; conditions: 10° C., pH 7.5
T1 construct: made in house; host or cells: E. coli BL21(DE3)
T1 sequence (P04181 26-439): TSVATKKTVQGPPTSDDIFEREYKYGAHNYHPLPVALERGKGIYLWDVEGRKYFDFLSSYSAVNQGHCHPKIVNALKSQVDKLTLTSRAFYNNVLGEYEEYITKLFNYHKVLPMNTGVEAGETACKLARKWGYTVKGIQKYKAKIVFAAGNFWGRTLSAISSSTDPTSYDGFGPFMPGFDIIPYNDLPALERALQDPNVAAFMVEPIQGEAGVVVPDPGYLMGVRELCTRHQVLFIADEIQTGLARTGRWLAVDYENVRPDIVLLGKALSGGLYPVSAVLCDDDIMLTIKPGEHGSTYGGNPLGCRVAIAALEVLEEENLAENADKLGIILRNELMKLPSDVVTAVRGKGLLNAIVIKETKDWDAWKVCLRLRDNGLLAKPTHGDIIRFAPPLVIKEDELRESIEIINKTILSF
Experimental: FIG. 6. Transient state absorption changes observed at 275, 420, and 560 nm for hOAT reacting with SS-1-148. OAT (12.7 μM final) was mixed with SS-1-148 (126, 251, 502, 1004, 2008, 4016 μM), and CCD spectra were collected for the timeframe 0.009-49.2 seconds. (A) The data observed at 420 nm fit to a linear combination of three exponential terms according to equation (3) described in the supporting information. The arrow indicates the trend observed in amplitude for increasing inhibitor concentration. (B) The observed rate constant dependence of the first phase observed at 420 nm fit to equation (5) described in the supporting information. The values for k2 and k3 indicated are the average values obtained from the fit in FIG. 5A. The fit is shown in red dashes. (C) The data observed at 560 nm. The curved arrow indicates the trend observed in amplitude for increasing inhibitor concentration. […] The fit is shown in red dashes. (D) The data observed at 275 nm over 2000 sec obtained in the presence of 8032 μM SS-1-148 fit to a linear combination of two exponential terms according to equation (4) in the supporting information. The fit is shown in red dashes.
FIG. 7. Partial deconvolution by singular value decomposition (SVD) of transient state absorption changes observed for hOAT reacting with SS-1-148. hOAT (6.94 μM; final concentration) was reacted in a stopped-flow spectrophotometer with SS-1-148 (1040 μM; final concentration) at 10° C. To obtain time resolution sufficient to analyze kinetic rates spanning four orders of magnitude, a composite CCD absorbance dataset was prepared spanning 250-800 nm and 0.0137-9843 sec by splicing together averaged short and long time-frame datasets. […] The species concentration profile based on the rate constants used to fit the dataset (B). A three-dimensional depiction of a subset of spectra from the dataset analyzed (C).
For each concentration of the inhibitor, CCD spectral datasets were collected in duplicate for 50 sec, and the duplicates were averaged For the highest concentration of inhibitor (8 mM) duplicate CCD datasets were acquired for two timeframes (0.0025-12.4 sec and 0.0025-2480 sec). Duplicate datasets for anyone timeframe were averaged and then spliced together at 12 sec to form one dataset with sufficient time resolution to adequately describe rapid and slow processes. […] In the process, the rate constants were fixed to the values measured using analytical fits to data extracted for single wavelengths that assume successive first-order processes according to the equations (3), (4), and (5). Abs is absorbance, Ax are the amplitudes associated with each observed phase, kx are the corresponding rate constants, and C is the absorbance endpoint.

[1] = Plasma protein binding, human; format: in vitro ADME
CYP 2C9 = CYP 2C9 (Homo sapiens, UniProt P11712); test: CYP inhibition 2C9; format: in vitro ADME
Asp-AT = biological target: T2, Asp-AT (Sus scrofa, UniProt P00503); test: Inhibition of Asp-AT; format: biochemical, porcine
T2 construct: L-aspartate aminotransferase (Asp-AT) from the porcine heart; purchased Sigma-Aldrich G2751-2KU; host or cells: porcine heart
Experimental: All reagents for enzyme purification and assays were purchased from Sigma-Aldrich (St. Louis, MO, USA). […] All the enzyme assays for the inactivation, partition ratio, and dialysis experiment were recorded on a Synergy H1 hybrid multimode microplate reader (Biotek, USA) with transparent 96-well plates. […]
(§1) potassium phosphate at pH 7.4, 5.55 mM α-ketoglutarate, 1.11 mM NADH, 5.55 mM […], 5.55 units of malic dehydrogenase, and various concentrations of SS-1-148. […] The plate was shaken at room temperature for 1 min, and the absorbance was measured at 340 nm every 10 s for 90 min based on the conversion of NADH to NAD^+. The remaining Asp-AT activity percentage was calculated according to the corresponding concentrations. […]

Ala-AT = Ala-AT (Sus scrofa, UniProt P13191); test: Inhibition of Ala-AT; format: biochemical, porcine; conditions: up to 10 mM
Experimental: All reagents for enzyme purification and assays were purchased from Sigma-Aldrich (St. Louis, MO, USA). […] All the enzyme assays for the inactivation, partition ratio, and dialysis experiment were recorded on a Synergy H1 hybrid multimode microplate reader (Biotek, USA) with transparent 96-well plates.
as §1

T2 sequence (P00503 2-413 limits assumed): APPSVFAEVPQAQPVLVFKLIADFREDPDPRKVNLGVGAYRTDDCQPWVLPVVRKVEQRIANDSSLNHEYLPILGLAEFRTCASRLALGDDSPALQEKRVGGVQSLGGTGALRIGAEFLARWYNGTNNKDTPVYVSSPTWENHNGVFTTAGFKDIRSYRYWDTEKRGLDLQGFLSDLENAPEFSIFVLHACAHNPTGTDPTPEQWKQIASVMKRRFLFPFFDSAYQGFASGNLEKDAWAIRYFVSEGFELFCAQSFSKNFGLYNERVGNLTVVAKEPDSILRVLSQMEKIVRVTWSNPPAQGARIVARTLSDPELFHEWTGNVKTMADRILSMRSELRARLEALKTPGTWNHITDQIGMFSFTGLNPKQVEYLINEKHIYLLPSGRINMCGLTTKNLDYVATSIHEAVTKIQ
Sequence of Ala-AT (P13191 whole entry): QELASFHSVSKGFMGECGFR
Sequence of CYP 2C9 (P11712 whole entry): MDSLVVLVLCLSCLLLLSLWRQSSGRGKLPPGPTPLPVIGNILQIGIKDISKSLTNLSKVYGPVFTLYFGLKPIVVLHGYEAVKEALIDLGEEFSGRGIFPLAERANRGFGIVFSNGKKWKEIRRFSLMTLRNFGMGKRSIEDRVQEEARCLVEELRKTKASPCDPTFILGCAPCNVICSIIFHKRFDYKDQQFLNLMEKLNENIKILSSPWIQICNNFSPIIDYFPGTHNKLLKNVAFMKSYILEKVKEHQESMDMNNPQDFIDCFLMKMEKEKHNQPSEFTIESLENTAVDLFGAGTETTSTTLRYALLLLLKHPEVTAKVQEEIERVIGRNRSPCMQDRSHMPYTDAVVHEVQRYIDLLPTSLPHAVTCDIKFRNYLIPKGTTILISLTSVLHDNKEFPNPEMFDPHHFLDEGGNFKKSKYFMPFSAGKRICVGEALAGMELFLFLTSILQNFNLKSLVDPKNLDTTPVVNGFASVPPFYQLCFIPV

Compound: N[C@H]1C=C(C(=O)O)CC1(F)F [SS-1-148, (S)-3-Amino-4,4-difluorocyclopent-1-enecarboxylic acid hydrochloric acid salt]
- rate constant of final phase (increase at ~275 nm) (hOAT): 0.007 s⁻¹
- rate dependence of second external aldimine formation (bimolecular reaction) (hOAT): 6200 M⁻¹ s⁻¹
- rate of accumulation of quinonoid species (~560 nm) (hOAT): 0.4 s⁻¹
- rate of quinonoid decay (hOAT): 0.09 s⁻¹
- fraction unbound [1]: 1
- IC50 (CYP 2C9): > 100 µM
- Ki (Asp-AT; read-out: Off-target effects (Ki, mM) Asp-AT): > 20 mM
- inhibition on Asp-AT (Asp-AT; up to 10 mM): did not show noticeable inhibition
- inhibition on Ala-AT (Ala-AT): did not show noticeable inhibition
